From patent US20080287469A1, “Phosphoinositide 3-Kinase Inhibitors for Inhibiting Leukocyte Accumulation” (priority 2005, published 2008)

Key:
[1] = molecular target: EGF receptor tyrosine kinase (Homo sapiens, UniProt P00533); experiment: Protein kinase/phosphatase panel: EGF receptor tyrosine kinase; type: biochemical; conditions: inhibitor 10 μM; 100 μM ATP
[2] = molecular target: Insulin receptor tyrosine kinase (Homo sapiens, UniProt P06213); experiment: Protein kinase/phosphatase panel: insulin receptor tyrosine kinase; type: biochemical; conditions: inhibitor 10 μM; 100 μM ATP
[3] = molecular target: CD45 tyrosine phosphatase (Homo sapiens, UniProt P08575); experiment: Protein kinase/phosphatase panel: CD45 tyrosine phosphatase; type: biochemical; conditions: inhibitor 10 μM
PKC-θ = PKC-θ (Homo sapiens, UniProt Q04759); experiment: Protein kinase/phosphatase panel: PKC-θ; type: biochemical; conditions: inhibitor 10 μM; 100 μM ATP
PDK1 = PDK1 (Homo sapiens, UniProt O15530); experiment: Protein kinase/phosphatase panel: PDK1; type: biochemical; conditions: inhibitor 10 μM; 100 μM ATP
P70S6K = P70S6K (Homo sapiens, UniProt P23443); experiment: Protein kinase/phosphatase panel: P70S6K; type: biochemical; conditions: inhibitor 10 μM; 100 μM ATP
ZAP-70 = ZAP-70 (Homo sapiens, UniProt P43403); experiment: Protein kinase/phosphatase panel: ZAP-70; type: biochemical; conditions: inhibitor 10 μM; 100 μM ATP
[4] = Number of circulating neutrophils in treated mice; type: in vivo; conditions: inhibitor treated animals
From the text: The reduction in cell adhesion in these animals was not due to inhibitor-induced leukopenia as the number of circulating neutrophils was similar in both the control and experimental groups (2,857.3±803 and 2,730.7±1132.6 for control and inhibitor treated animals, respectively). The absolute number of circulating neutrophils in animals deficient in PI3Kδ was 2,997.7±776.1 (n=8).

[5] = system: Akt phosphorylation in HUVECs; experiment: Akt phosphorylation in TNFα-stimulated HUVECs (Western blot); type: cell-based, human; conditions: 2 μM
TNFα-stimulated HUVECs = experiment: Neutrophil tethering to TNFα-stimulated HUVECs, parallel plate flow chamber; type: cell-based, human; conditions: for reduction of neutrophil tethering to HUVECs pre-incubated with inhibitor: 2 μM, vs vehicle
Description: First, the effect of inhibiting PI3Kδ in endothelial cells was examined. Human umbilical vein endothelial cells (HUVECs) (3-4 passages; Cambrex Inc., East Rutherford, N.J.) grown on fibronectin-coated glass cover slips were pretreated with an inhibitor in accordance with the invention (2 μM) or vehicle control for 1 hour prior to being stimulated with TNFα (5 ng/ml, 4 h). Stimulation with TNFα induces expression of E-selectin by the endothelial cells. Peripheral blood neutrophils from healthy volunteers were isolated from whole blood by dextran sedimentation followed by density separation over Ficoll-Hypaque and hypotonic lysis. Approval was obtained from the Washington University Institutional Review Board for these studies. Informed consent was provided according to the Declaration of Helsinki. […] In additional experiments where leukocytes were pre-treated with an inhibitor of the invention as described above, the HUVECS were pre-incubated with mAb CL3 (50 μg/ml, 15 min) to block E-selectin binding. […] Endothelial cells therefore recruit leukocytes at least in part through selectins.

ICAM-1 = experiment: LTB4-triggered firm adhesion of neutrophils to CHO cells transfected with human ICAM-1; type: cell-based; conditions: 2 μM; LTB4 0.1 μM; wall shear stresses 2 and 4 dyn/cm^2
Description: Purified neutrophils (2×10^6/ml in HBSS buffer containing 2 mM MgCl2) were incubated with 2 μM of a compound in accordance with the invention prior to conducting the adhesion assays. […] Treated neutrophils were then stimulated with LTB4 (0.1 μM) and allowed to bind in stasis to CHO cells transfected with human ICAM-1 before subjecting them to physiological wall shear stresses of 2 and 4 dyn/cm^2. ICAM-1 expression on these cells was confirmed by flow cytometry using mAb R 1/1 (fluorescence intensity>103, data not shown). […] For example, more than 80% of LTB4-stimulated neutrophils remained bound to the ICAM-1 substrate in the presence or absence of an inhibitor in accordance with the invention. The percentage of cells that remained adherent after 20 seconds (s) at each wall shear stress was determined by off-line video analysis.

[6] = system: neutrophil accumulation in BAL fluid; experiment: LPS-induced acute lung injury model, BAL fluid; type: in vivo; conditions: for reduction in the accumulation of neutrophils in BAL fluid: one hour prior to LPS challenge
Description: Lewis rats to be treated with an inhibitor in accordance with the invention or vehicle control (PEG400) were first challenged with LPS [Asti et al., Pulm. Pharmacol Ther., 13:61-69 (2000)]. Briefly, the trachea was exposed by standard surgical procedures and 100 μl saline solution or saline containing LPS (Escherichia Coli Serotype 0111:B4, Sigma) was instilled. Six hours following the challenge, rats were euthanized and the bronchoalveolar lavage (BAL) fluid was collected for cell differentials. Total white blood cell (WBC) and neutrophil counts were determined (Hemavet™ 850 FS cell counter). Cell populations were identified by morphological examination of smears prepared by cytocentrifugation.
Animals received a single oral dose of either a compound in accordance with the invention (25 mg/kg for mice and 20 or 40 mg/kg for rats) or vehicle (PEG-400). Blood samples were subsequently drawn at indicated time points and plasma concentration of the compound determined after liquid-liquid extraction by LC/MS. The lower quantification limit was 50 ng/ml. Plasma samples from control animals (vehicle alone) were used as the blank control.

p38 MAPK = p38 MAPK (Homo sapiens, UniProt Q16539); conditions: inhibitor 10 μM; reported by Sadhu et al.; cited from earlier work
DNA-PK = DNA-PK (Homo sapiens, UniProt P78527); conditions: inhibitor 10 μM; reported by Sadhu et al.; cited from earlier work
CHK1 = CHK1 (Homo sapiens, UniProt O14757); conditions: inhibitor 10 μM; reported by Sadhu et al.; cited from earlier work
CK1 = conditions: inhibitor 10 μM; reported by Sadhu et al.; cited from earlier work
PKCβII = PKCβII (Homo sapiens, UniProt P05771); conditions: inhibitor 10 μM; reported by Sadhu et al.; cited from earlier work
neutrophils = conditions: absence of hemodynamic forces; Sadhu et al.; cited from earlier work

Sequence of PKCβII (P05771 1-673 isoform P05771-2): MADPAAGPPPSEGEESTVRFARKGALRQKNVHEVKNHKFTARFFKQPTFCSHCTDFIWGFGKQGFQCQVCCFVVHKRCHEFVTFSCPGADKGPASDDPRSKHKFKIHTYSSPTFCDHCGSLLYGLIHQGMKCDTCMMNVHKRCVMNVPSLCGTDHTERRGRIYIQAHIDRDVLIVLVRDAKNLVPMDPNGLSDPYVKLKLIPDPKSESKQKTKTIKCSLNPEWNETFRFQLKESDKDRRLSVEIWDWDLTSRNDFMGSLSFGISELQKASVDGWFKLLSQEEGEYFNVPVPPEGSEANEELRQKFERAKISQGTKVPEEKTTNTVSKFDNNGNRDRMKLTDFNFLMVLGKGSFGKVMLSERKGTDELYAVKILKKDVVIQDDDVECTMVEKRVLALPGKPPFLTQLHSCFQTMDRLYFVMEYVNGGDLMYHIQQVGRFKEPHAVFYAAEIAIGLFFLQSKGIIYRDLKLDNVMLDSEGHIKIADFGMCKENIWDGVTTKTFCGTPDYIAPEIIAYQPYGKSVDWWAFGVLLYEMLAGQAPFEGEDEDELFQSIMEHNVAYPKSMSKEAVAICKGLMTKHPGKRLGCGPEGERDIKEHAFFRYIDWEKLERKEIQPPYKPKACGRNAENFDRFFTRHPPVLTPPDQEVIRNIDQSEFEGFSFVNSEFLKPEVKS
Sequence of p38 MAPK (Q16539 whole entry): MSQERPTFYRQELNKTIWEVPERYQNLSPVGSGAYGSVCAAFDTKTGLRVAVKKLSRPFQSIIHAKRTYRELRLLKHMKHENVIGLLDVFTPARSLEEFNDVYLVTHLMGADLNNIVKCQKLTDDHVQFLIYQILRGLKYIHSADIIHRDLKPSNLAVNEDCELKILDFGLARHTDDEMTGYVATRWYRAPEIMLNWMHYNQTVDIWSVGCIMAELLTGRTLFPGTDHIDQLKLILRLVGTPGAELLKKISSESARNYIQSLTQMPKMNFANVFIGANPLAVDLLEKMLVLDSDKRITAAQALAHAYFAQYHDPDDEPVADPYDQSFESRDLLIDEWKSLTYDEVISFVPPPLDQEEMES
Sequence of CHK1 (O14757 whole entry, species assumed): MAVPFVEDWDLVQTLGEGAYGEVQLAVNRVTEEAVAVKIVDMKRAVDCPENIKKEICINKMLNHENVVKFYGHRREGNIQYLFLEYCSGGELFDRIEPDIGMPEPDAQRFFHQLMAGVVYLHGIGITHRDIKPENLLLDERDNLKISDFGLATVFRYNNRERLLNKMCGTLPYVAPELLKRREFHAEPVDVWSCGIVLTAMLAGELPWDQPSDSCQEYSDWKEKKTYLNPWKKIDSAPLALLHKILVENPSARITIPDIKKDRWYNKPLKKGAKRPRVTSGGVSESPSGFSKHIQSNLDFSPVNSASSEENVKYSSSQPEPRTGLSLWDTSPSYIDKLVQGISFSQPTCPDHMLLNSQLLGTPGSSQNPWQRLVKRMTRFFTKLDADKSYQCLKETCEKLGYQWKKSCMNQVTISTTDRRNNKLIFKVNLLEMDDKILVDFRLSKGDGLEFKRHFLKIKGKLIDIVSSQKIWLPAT
Sequence of Insulin receptor tyrosine kinase (P06213 28-1382): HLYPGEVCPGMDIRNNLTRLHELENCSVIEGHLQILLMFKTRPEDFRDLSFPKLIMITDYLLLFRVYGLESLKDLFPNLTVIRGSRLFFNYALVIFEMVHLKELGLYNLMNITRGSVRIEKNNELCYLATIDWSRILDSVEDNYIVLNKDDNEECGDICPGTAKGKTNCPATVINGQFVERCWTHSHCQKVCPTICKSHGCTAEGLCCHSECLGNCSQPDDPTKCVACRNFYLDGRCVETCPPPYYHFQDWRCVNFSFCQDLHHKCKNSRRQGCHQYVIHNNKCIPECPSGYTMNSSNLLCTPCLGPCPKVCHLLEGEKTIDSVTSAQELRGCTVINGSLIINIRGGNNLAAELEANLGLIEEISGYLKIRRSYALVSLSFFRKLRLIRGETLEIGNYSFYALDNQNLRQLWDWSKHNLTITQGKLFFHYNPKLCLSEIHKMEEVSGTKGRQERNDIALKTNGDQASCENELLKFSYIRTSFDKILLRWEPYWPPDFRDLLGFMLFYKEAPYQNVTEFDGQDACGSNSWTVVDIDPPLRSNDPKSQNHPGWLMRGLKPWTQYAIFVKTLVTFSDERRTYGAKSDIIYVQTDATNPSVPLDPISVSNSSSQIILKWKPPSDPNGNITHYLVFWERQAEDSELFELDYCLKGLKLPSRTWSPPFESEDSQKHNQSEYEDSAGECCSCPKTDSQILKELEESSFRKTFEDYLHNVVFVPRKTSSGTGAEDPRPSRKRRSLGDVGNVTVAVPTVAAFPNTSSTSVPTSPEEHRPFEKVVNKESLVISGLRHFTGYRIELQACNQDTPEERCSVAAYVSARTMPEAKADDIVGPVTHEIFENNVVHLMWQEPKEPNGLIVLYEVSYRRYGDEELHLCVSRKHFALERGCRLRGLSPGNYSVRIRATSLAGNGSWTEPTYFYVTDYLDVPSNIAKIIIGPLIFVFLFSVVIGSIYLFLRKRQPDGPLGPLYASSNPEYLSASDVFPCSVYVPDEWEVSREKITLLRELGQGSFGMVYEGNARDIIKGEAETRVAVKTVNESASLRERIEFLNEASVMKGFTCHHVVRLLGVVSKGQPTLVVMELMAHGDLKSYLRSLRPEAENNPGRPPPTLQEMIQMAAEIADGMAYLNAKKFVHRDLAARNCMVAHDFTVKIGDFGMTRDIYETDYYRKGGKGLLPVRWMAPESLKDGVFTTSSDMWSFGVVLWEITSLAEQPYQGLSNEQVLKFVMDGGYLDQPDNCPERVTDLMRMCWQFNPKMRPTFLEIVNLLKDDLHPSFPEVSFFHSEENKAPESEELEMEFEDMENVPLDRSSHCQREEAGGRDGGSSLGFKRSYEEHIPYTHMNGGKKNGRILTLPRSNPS
Sequence of CD45 tyrosine phosphatase (P08575 26-1306): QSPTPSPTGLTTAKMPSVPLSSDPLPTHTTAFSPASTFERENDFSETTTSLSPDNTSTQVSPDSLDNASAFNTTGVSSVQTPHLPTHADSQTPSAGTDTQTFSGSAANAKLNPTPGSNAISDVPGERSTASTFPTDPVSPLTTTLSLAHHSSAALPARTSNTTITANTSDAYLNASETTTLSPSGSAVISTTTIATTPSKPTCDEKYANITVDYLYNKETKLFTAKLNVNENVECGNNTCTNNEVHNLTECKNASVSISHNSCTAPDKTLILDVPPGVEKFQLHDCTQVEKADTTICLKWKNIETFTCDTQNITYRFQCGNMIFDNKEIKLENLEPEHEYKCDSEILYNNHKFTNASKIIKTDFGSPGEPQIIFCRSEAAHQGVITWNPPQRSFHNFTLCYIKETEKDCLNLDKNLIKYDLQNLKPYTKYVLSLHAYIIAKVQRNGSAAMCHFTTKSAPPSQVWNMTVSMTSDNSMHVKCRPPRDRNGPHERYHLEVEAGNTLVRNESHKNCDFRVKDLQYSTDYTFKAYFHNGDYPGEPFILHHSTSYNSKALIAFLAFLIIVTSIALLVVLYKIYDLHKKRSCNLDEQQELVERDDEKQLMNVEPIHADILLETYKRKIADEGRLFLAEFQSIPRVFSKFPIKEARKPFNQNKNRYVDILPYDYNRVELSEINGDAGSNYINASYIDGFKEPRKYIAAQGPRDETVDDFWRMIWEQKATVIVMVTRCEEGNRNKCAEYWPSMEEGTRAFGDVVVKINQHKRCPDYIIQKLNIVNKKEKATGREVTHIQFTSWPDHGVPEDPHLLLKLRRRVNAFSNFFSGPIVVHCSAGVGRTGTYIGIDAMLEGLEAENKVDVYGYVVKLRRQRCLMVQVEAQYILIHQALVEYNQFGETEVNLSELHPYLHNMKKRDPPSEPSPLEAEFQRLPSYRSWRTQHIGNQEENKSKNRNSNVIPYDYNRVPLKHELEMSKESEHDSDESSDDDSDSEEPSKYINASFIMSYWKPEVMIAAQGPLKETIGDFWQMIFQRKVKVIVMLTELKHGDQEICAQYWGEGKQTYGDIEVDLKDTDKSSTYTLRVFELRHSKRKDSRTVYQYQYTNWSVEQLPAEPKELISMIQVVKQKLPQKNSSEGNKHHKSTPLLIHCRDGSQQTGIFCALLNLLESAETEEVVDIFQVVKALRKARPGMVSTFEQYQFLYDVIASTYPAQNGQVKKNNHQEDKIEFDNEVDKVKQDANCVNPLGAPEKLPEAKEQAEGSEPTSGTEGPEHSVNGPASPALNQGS
Sequence of PKC-θ (Q04759 whole entry): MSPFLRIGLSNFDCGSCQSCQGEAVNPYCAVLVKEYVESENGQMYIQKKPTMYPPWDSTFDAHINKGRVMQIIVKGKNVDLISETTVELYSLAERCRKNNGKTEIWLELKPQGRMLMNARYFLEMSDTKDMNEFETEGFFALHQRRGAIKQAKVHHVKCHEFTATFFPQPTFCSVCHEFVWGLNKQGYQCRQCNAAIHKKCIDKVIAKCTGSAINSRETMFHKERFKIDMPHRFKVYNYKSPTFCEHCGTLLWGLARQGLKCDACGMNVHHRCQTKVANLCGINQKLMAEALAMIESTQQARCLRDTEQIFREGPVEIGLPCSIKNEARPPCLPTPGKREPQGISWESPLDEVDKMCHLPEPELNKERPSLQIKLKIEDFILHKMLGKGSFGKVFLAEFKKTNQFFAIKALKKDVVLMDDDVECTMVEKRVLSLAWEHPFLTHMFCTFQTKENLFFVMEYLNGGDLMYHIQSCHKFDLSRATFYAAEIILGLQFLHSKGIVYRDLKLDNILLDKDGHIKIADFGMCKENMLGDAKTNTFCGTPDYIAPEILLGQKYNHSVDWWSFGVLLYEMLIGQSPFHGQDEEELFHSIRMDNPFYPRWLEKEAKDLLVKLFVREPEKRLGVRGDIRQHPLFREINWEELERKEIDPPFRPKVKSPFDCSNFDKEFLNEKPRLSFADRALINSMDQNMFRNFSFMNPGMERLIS

Cc1ccccc1-n1c(Cn2cnc3c(N)ncnc32)nc2cccc(C)c2c1=O
Activity (% of control) ± SD [1]: 102 ± 5.5 % of control | Activity (% of control) ± SD [2]: 98 ± 6.2 % of control | Activity (% of control) ± SD [3]: 104 ± 2.2 % of control | Activity (% of control) ± SD (PKC-θ): 97 ± 5.5 % of control | Activity (% of control) ± SD (PDK1): 91.5 ± 2.1 % of control | Activity (% of control) ± SD (P70S6K): 98.5 ± 0.7 % of control | Activity (% of control) ± SD (ZAP-70): 97.5 ± 13.4 % of control | number of circulating neutrophils [4]: 2,730.7±1132.6 | phosphorylation of Akt (TNFα-mediated signaling) [5]: reduction in phosphorylation of Akt | reduction of neutrophil tethering to HUVECs pre-incubated with inhibitor (TNFα-stimulated HUVECs; wall shear rate 100 s^−1): 28% | reduction of neutrophil tethering to HUVECs pre-incubated with inhibitor (TNFα-stimulated HUVECs; wall shear rate 300 s^−1): 40% | neutrophil tethering after treatment of neutrophils (not HUVECs) with inhibitor (TNFα-stimulated HUVECs; identical concentration (2 μM), HUVEC pre-treated with only TNFα): did not reduce neutrophil tethering | LTB4-stimulated neutrophils remaining bound to the ICAM-1 substrate (ICAM-1): more than 80% | reduction in the accumulation of neutrophils in BAL fluid ([6]; 20 mg per kg oral): approximately 60% | reduction in the accumulation of neutrophils in BAL fluid ([6]; 40 mg per kg oral): ~80% | TNFα in BAL fluid ([6]; LPS-treated mice that received inhibitor): still detectable | Activity (% of control) ± SD (p38 MAPK): No inhibition* | Activity (% of control) ± SD (DNA-PK): No inhibition* | Activity (% of control) ± SD (CHK1): No inhibition* | Activity (% of control) ± SD (CK1): No inhibition* | Activity (% of control) ± SD (PKCβII): No inhibition* | fMLP-induced chemotaxis on an ICAM-1 substrate in vitro (neutrophils): diminished fMLP-induced chemotaxis
